Marks after values point to notes of the source that are not given here. One block for each substance: values may come before it. Square brackets hold non-standard residues; d marks the D form. Ends that are not written are not given here. Hyp = O=C(O)[C@@H]1C[C@@H](O)CN1
What was measured:
[1] = system: D93 binding to human denatured-collagen IV; assay: Competition ELISA: synthetic peptides blocking D93 binding to heat denatured collagen IV
Description: (§1) The ELISA was conducted as follows: wells of a 96-well microtiter plate (Immulon, 4 HBX flat-bottomed, Thermo Electron Corporation, Waltham, Mass.) were coated with 100 μL/well of dn-collagen IV at 10 μg/mL in Phosphate Buffered Saline (PBS) overnight at 4° C. The plate was washed 3 times (3×) with PBS containing 0.05% (v/v) Tween-20 (PBST) using an automated plate washer.
(§2) The plate was blocked by adding 300 μL/well of 1% BSA (w/v) in PBS for 1 hour at 25° C. followed by washing 3× in PBST as above.
(§3) Solutions of D93 or HUI77 were prepared with various concentrations of peptide or antibody inhibitor and incubate for 15 minutes. D93 or HUI77 was prepared at 200 ng/mL in 1% BSA/PBS.
(§4) For antibody blocking studies using synthetic peptides: peptide inhibitor stock solutions were prepared at 2 mM, 0.2 mM, 0.02 mM, and 0.002 mM in 1% BSA/PBS. 500 μL of a 2 mM peptide solution in 1% BSA/PBS was prepared and diluted 1:10 in 500 μL a total of three times to make peptide inhibitor concentrations.
(§5) 200 μL of D93 or HUI77 at 200 ng/mL solution was combined with 200 μL of peptide or antibody inhibitor solution and incubated for 15 minutes at room temperature.
(§6) D93 or HUI77 with various concentrations of inhibitors (2 mM, 0.2 mM, 0.02 mM, and 0.002 mM) were added to microplate wells and incubated for 1 hour at 25° C. The plate was washed 3× in PBST as above.
(§7) To each microtiter plate well, 100 μL of diluted anti-human IgG or anti-mouse IgM conjugated to horseradish peroxidase (HRP) in PBST was added and incubated for one hour at 25° C.: (a) for D93: Goat anti-human IgG-HRP (Jackson ImmunoResearch, Catalog No. 109-035-088) was used at 1:20,000 and (b) for HUI77: Goat anti-mouse IgM-HRP was used at 1:4,000. Plates were washed 3× in PBST as above.
(§8) Tetramethylbenzidine (TMB) substrate (100 μL; Pierce Chemicals)) was added to wells and the plates were allowed to develop at room temperature for 15 minutes in the dark. Substrate development was stopped by adding 50 μL/well of 2N H2SO4. The microtiter […] plates were read at 450 nm within five minutes of adding the H2SO4. Reactivity was measured with a microplate reader (Molecular Devices, Sunnyvale, Calif.) at a wavelength of 450 nm and analyzed using SOFTMax® PRO4.0 (Molecular Devices). All samples were tested in triplicate.
(§9) Individual peptides with amino acid substitutions and deletions were also synthesized based on the primary and secondary peptide arrays. […] The inhibitory activity of the individual peptides was tested by ELISA as previously described to measure binding of D93 or HUI77 to denatured collagen where peptides and antibodies were prepared at a 2× concentration and pre-incubated for 15 minutes prior to adding to microtiter plates coated with dn-collagen.
(§10) 96-well plates were coated with 100 μL/well of denatured (dn) collagen IV at 10 μg/mL in phosphate buffered saline (PBS) overnight at 4° C. followed by washing the plates in an automated plate washer 3 times in PBS containing 0.05% (v/v) Tween-20 (PBST). Non-specific binding was prevented by blocking the wells by adding 300 μL/well of 1% bovine serum albumin (BSA) (w/v) in PBS for 1 hour (hr) at 25° C. The plates were washed as above.
(§11) Solutions of D93 and HUI77 antibodies were prepared with various concentrations of inhibitor and incubated for 15 minutes. Briefly, 20 mLs of D93 or HUI77 were prepared at 200 ng/mL in 1% BSA/PBS. Solutions of peptide inhibitors (2 mM, 0.2 mM, […]) were prepared in 1% BSA/PBS. Equal volumes of antibodies and peptide inhibitors were combined: 200 μL of D93 or HUI77 (200 ng/mL solution) with 200 μL of each peptide solution.
(§12) 100 μL/well of D93 or HUI77 at 100 ng/mL with various concentrations of inhibitors were added to the wells in triplicate and incubated for 1 hour at 25° C. The plates were washed as described above.
(§13) 100 μL/well of secondary horseradish peroxidase (HRP)-conjugated antibody in PBST was added to each well and incubated for 1 hour (hr) at 25° C. […]

[2] = system: HUI77 binding to denatured collagen IV; assay: Competition ELISA: synthetic peptides blocking HUI77 binding to heat denatured collagen IV; parameters: species or system human
Description: as §1, §2, §3, §4, §5, §6, §7, §8, §9, §10, §11, §12, §13

[3] = peptide inhibitor concentration 10 μM, asterisk (*): data from a separate assay
[4] = peptide inhibitor concentration 100 μM, asterisk (*): data from a separate assay
[5] = peptide inhibitor concentration 1000 μM, asterisk (*): data from a separate assay
[6] = peptide inhibitor concentration 1 μM, average of two studies, vs 1% BSA/PBS alone
[7] = peptide inhibitor concentration 10 μM, average of two studies, vs 1% BSA/PBS alone
[8] = peptide inhibitor concentration 100 μM, average of two studies, vs 1% BSA/PBS alone
[9] = peptide inhibitor concentration 1000 μM, average of two studies, vs 1% BSA/PBS alone
[10] = peptide inhibitor concentration 10 μM, average of two studies
[11] = peptide inhibitor concentration 100 μM, average of two studies
[12] = peptide inhibitor concentration 1000 μM, average of two studies

Substance: LPGLPG (L[Hyp]GL[Hyp]G) [SEQ ID NO: 25]
- % INHIBITION OF BINDING OF D93 TO HUMAN DENATURED-COLLAGEN IV [1, 6]: 8%
- % INHIBITION OF BINDING OF D93 TO HUMAN DENATURED-COLLAGEN IV [1, 7]: 6.5%
- % INHIBITION OF BINDING OF D93 TO HUMAN DENATURED-COLLAGEN IV [1, 8]: 6.5%
- % INHIBITION OF BINDING OF D93 TO HUMAN DENATURED-COLLAGEN IV [1, 9]: 46.5%
- % INHIBITION OF BINDING OF HUI77 TO DENATURED COLLAGEN IV [2, 10]: 6%
- % INHIBITION OF BINDING OF HUI77 TO DENATURED COLLAGEN IV [2, 11]: 9.5%
- % INHIBITION OF BINDING OF HUI77 TO DENATURED COLLAGEN IV [2, 12]: 17.5%

Substance: LPGPPGPPG [SEQ ID NO: 22]
- % INHIBITION OF BINDING OF D93 TO HUMAN DENATURED-COLLAGEN IV ([1]; peptide inhibitor concentration 1 μM, average of two studies, vs 1% BSA/PBS alone, listed as 18 (22), 1 µM): 6%
- % INHIBITION OF BINDING OF D93 TO HUMAN DENATURED-COLLAGEN IV ([1]; peptide inhibitor concentration 10 μM, average of two studies, vs 1% BSA/PBS alone, listed as 18 (22), 10 µM): 5%
- % INHIBITION OF BINDING OF D93 TO HUMAN DENATURED-COLLAGEN IV ([1]; peptide inhibitor concentration 100 μM, average of two studies, vs 1% BSA/PBS alone, listed as 18 (22), 100 µM): 3%
- % INHIBITION OF BINDING OF D93 TO HUMAN DENATURED-COLLAGEN IV ([1]; peptide inhibitor concentration 1000 μM, average of two studies, vs 1% BSA/PBS alone, listed as 18 (22), 1000 µM): 17.5%
- % INHIBITION OF BINDING OF HUI77 TO DENATURED COLLAGEN IV ([2]; peptide inhibitor concentration 100 μM, average of two studies, listed as 18 (22), 100 µM): 9%
- % INHIBITION OF BINDING OF HUI77 TO DENATURED COLLAGEN IV ([2]; peptide inhibitor concentration 1000 μM, average of two studies, listed as 18 (22), 1000 µM): 6%

The next lines start with the values.

- % INHIBITION OF BINDING OF D93 TO HUMAN DENATURED-COLLAGEN IV ([1]; peptide inhibitor concentration 1 μM, asterisk (*): data from a separate assay): 5.4* %
- % INHIBITION OF BINDING OF D93 TO HUMAN DENATURED-COLLAGEN IV [1, 3]: 7.8* %
- % INHIBITION OF BINDING OF D93 TO HUMAN DENATURED-COLLAGEN IV [1, 4]: 8.3* %
- % INHIBITION OF BINDING OF D93 TO HUMAN DENATURED-COLLAGEN IV [1, 5]: 11.6* %
- % INHIBITION OF BINDING OF HUI77 TO DENATURED COLLAGEN IV [2, 3]: 10.2* %
- % INHIBITION OF BINDING OF HUI77 TO DENATURED COLLAGEN IV [2, 4]: 0* %
- % INHIBITION OF BINDING OF HUI77 TO DENATURED COLLAGEN IV [2, 5]: 3.7* %
Substance: LPGFPG [SEQ ID NO: 38, reference compound]

- % INHIBITION OF BINDING OF D93 TO HUMAN DENATURED-COLLAGEN IV [1, 6]: 8%
- % INHIBITION OF BINDING OF D93 TO HUMAN DENATURED-COLLAGEN IV [1, 7]: 3.5%
- % INHIBITION OF BINDING OF D93 TO HUMAN DENATURED-COLLAGEN IV [1, 8]: 1%
- % INHIBITION OF BINDING OF D93 TO HUMAN DENATURED-COLLAGEN IV [1, 9]: 6.5%
- % INHIBITION OF BINDING OF HUI77 TO DENATURED COLLAGEN IV [2, 10]: 7%
- % INHIBITION OF BINDING OF HUI77 TO DENATURED COLLAGEN IV [2, 11]: 7.5%
- % INHIBITION OF BINDING OF HUI77 TO DENATURED COLLAGEN IV [2, 12]: 8.5%
Substance: LPGFPGC [SEQ ID NO: 37, reference compound]

- % INHIBITION OF BINDING OF D93 TO HUMAN DENATURED-COLLAGEN IV ([1]; peptide inhibitor concentration 1 μM, average of two studies, vs 1% BSA/PBS alone, listed as 20 (21), 1 µM): 13%
- % INHIBITION OF BINDING OF D93 TO HUMAN DENATURED-COLLAGEN IV ([1]; peptide inhibitor concentration 10 μM, average of two studies, vs 1% BSA/PBS alone, listed as 20 (21), 10 µM): 35.5%
- % INHIBITION OF BINDING OF D93 TO HUMAN DENATURED-COLLAGEN IV ([1]; peptide inhibitor concentration 100 μM, average of two studies, vs 1% BSA/PBS alone, listed as 20 (21), 100 µM): 85.5%
- % INHIBITION OF BINDING OF D93 TO HUMAN DENATURED-COLLAGEN IV ([1]; peptide inhibitor concentration 1000 μM, average of two studies, vs 1% BSA/PBS alone, listed as 20 (21), 1000 µM): 92.5%
- % INHIBITION OF BINDING OF HUI77 TO DENATURED COLLAGEN IV [2, 10]: 6.5%
- % INHIBITION OF BINDING OF HUI77 TO DENATURED COLLAGEN IV ([2]; peptide inhibitor concentration 100 μM, average of two studies, listed as 20 (21), 100 µM): 18%
- % INHIBITION OF BINDING OF HUI77 TO DENATURED COLLAGEN IV ([2]; peptide inhibitor concentration 1000 μM, average of two studies, listed as 20 (21), 1000 µM): 86%
Substance: LPGPPGPPG (LPGP[Hyp]GP[Hyp]G) [SEQ ID NO: 21]

Source: patent US20080008707A1, “Denatured collagen peptides and uses thereof” (Cell-Matrix, Inc., priority 2006, published 2008)
